Our source for the inhibition values is patent publication US8378117B2 (priority 2005, dated 2013).

Molecules are shown by their SMILES. Like-named read-outs stand apart in the source and are kept apart here.

One assay concerns the target T1, CB2 receptor (Homo sapiens, UniProt P34972).
T1 construct: expressed in transfected cells
The assay is described as follows: Binding assay for CB2 agonists or inverse agonists (SK-N-MC membranes, [3H]-CP-55,940). The method, boiled down: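 Membranes from SK-N-MC cells stably expressing human CB2 were incubated with radioligand and test compounds for 90 min at 30 °C in Tris-HCl buffer, pH 7.5, with MgCl2, EDTA and fatty-acid-free BSA. Filter-bound radioactivity was counted; IC50 was derived by linear regression of percent inhibition.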

Another assay addresses T2, CB1 receptor (Homo sapiens, UniProt P21554).
T2 construct: expressed in transfected cells
The assay is described as follows: Binding assay for CB1 agonists or inverse agonists (SK-N-MC membranes, [3H]-CP-55,940). Particulars: read-out: CB1 receptor binding percent inhibition, test concentration 0.2 μM (footnote 2). The method, boiled down:
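Membranes from SK-N-MC cells stably expressing human CB1 incubated with compound and [3H]-CP-55,940 ([…]) for 90 min at 30° C in Tris-HCl pH 7.5, MgCl2, EDTA, fatty-acid-free BSA. Non-specific binding defined with 10 uM WIN 55,212; filtration, scintillation count; IC50 by linear regression.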

The mark [1] stands for this setting: test concentration 0.2 μM (footnote 2), read-out: CB2 receptor binding percent inhibition.

T1 sequence (P34972 whole entry): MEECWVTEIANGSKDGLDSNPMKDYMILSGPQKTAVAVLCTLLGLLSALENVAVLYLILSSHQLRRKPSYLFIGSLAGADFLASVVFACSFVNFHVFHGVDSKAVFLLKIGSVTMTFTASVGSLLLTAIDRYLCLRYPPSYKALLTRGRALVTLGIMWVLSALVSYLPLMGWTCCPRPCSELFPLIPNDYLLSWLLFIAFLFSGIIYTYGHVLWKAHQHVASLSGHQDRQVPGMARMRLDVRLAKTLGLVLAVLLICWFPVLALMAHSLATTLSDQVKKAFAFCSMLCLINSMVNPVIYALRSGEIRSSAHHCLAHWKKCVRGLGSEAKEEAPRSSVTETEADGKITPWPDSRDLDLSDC
T2 sequence (P21554 whole entry): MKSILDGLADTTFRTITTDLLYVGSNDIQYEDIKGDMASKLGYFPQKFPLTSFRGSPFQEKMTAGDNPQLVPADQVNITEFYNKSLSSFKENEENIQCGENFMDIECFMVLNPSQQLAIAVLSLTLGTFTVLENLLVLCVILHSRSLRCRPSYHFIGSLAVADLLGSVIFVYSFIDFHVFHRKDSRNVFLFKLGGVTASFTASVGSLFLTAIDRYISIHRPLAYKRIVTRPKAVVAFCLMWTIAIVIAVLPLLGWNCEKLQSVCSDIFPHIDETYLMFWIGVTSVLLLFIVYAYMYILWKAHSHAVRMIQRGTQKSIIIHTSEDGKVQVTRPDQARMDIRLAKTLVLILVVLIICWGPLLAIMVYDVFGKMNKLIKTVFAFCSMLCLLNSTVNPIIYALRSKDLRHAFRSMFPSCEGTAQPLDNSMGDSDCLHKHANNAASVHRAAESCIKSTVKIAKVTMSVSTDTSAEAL

On to `O=C(N[C@H](CO)c1ccccc1)c1nn(-c2ccc(Cl)cc2Cl)c2c1CCCC[C@@H]2Cc1cccc(Cl)c1` [Cpd 161, (8R)-8-(3-chloro-benzyl)-1-(2,4-dichloro-phenyl)-1,4,5,6,7,8-hexahydro-cycloheptapyrazole-3-carboxylic acid [(1S)-2-hydroxy-1-phenyl-ethyl]-amide], for which the inhibition at 0.2 µM is 3% at CB2 receptor (setting [1]) and 35% on CB1 receptor.

On to `O=C(N[C@H](CO)c1ccccc1)c1nn(-c2ccc(Cl)cc2Cl)c2c1CCCC[C@H]2Cc1cccc(Cl)c1` [Cpd 162, (8S)-8-(3-chloro-benzyl)-1-(2,4-dichloro-phenyl)-1,4,5,6,7,8-hexahydro-cycloheptapyrazole-3-carboxylic acid [(1S)-2-hydroxy-1-phenyl-ethyl]-amide], for which the inhibition at 0.2 µM on CB2 receptor (setting [1]) was determined as 5%; on CB1 receptor, 16%.

Take `O=C(N[C@@H](CO)Cc1ccccc1)c1nn(-c2ccc(Cl)cc2Cl)c2c1CCCCC2Cc1cccc(Cl)c1` (stereo partly drawn) [Cpd 163, 8-(3-chloro-benzyl)-1-(2,4-dichloro-phenyl)-1,4,5,6,7,8-hexahydro-cycloheptapyrazole-3-carboxylic acid [(1R)-1-benzyl-2-hydroxy-ethyl]-amide]: the inhibition at 0.2 µM on CB2 receptor (setting [1]) amounted to 7%; on CB1 receptor, 44%.

For `O=C(N[C@H](CO)Cc1ccccc1)c1n[nH]c2c1CCCCC2Cc1cccc(Cl)c1` (stereo partly drawn) [Cpd 166, 8-(3-chloro-benzyl)-1,4,5,6,7,8-hexahydro-cycloheptapyrazole-3-carboxylic acid [(1S)-1-benzyl-2-hydroxy-ethyl]-amide], the inhibition at 0.2 µM at CB2 receptor (read-out: CB2 receptor binding percent inhibition, test concentration 0.2 μM (footnote 2)) came out at 75%; at CB1 receptor, 24%.

As for `O=C(N[C@H](CO)c1ccccc1)c1nn(-c2ccc(F)cc2F)c2c1CCCCC2Cc1cccc(F)c1` (stereo partly drawn) [Cpd 168, 1-(2,4-difluoro-phenyl)-8-(3-fluoro-benzyl)-1,4,5,6,7,8-hexahydro-cycloheptapyrazole-3-carboxylic acid [(1S)-2-hydroxy-1-phenyl-ethyl]-amide], the figures for the inhibition at 0.2 µM at CB2 receptor (setting [1]) and on CB1 receptor were 11% and 18%, respectively.

`O=C(N[C@H](CCl)c1ccccc1)c1nn(-c2ccc(F)cc2F)c2c1CCCCC2Cc1cccc(F)c1` (stereo partly drawn) [Cpd 169, 1-(2,4-difluoro-phenyl)-8-(3-fluoro-benzyl)-1,4,5,6,7,8-hexahydro-cycloheptapyrazole-3-carboxylic acid [(1S)-2-chloro-1-phenyl-ethyl]-amide]: the inhibition at 0.2 µM on CB2 receptor (setting [1]) was 14%; on CB1 receptor it was 24%.

As to `C[C@@H](NC(=O)c1nn(-c2ccncc2)c2c1CCCC/C2=C\c1ccc(Cl)cc1)c1ccccc1` [Cpd 170, (8E)-8-(4-chloro-benzylidene)-1-pyridin-4-yl-1,4,5,6,7,8-hexahydro-cycloheptapyrazole-3-carboxylic acid [(1R)-1-phenyl-ethyl]-amide], the inhibition at 0.2 µM on CB2 receptor (setting [1]) is 27%; at CB1 receptor, 29%.

On to `C[C@H](NC(=O)c1nn(-c2ccncc2)c2c1CCCC/C2=C\c1ccc(Cl)cc1)c1ccccc1` [Cpd 171, (8E)-8-(4-chloro-benzylidene)-1-pyridin-4-yl-1,4,5,6,7,8-hexahydro-cycloheptapyrazole-3-carboxylic acid [(1S)-1-phenyl-ethyl]-amide], for which the inhibition at 0.2 µM on CB2 receptor (setting [1]) was 38%; on CB1 receptor, 2%.

Take `C[C@@H](NC(=O)c1nn(-c2ccc(F)cc2F)c2c1CCCCC2Cc1cccc(F)c1)c1ccccc1` (stereo partly drawn) [Cpd 173, 1-(2,4-difluoro-phenyl)-8-(3-fluoro-benzyl)-1,4,5,6,7,8-hexahydro-cycloheptapyrazole-3-carboxylic acid [(1R)-1-phenyl-ethyl]-amide]: the inhibition at 0.2 µM on CB2 receptor (setting [1]) was 19%; on CB1 receptor it was 32%.

Take `C[C@@H](NC(=O)c1nn(C2CCCCC2)c2c1CCCCC2Cc1cccc(F)c1)c1ccccc1` (stereo partly drawn) [Cpd 174, 1-cyclohexyl-8-(3-fluoro-benzyl)-1,4,5,6,7,8-hexahydro-cycloheptapyrazole-3-carboxylic acid [(1R)-1-phenyl-ethyl]-amide]: the inhibition at 0.2 µM came out at 33% on CB2 receptor (setting [1]) and 0% on CB1 receptor.

For the compound `C[C@@H](NC(=O)c1nn(-c2nccc(C(F)(F)F)n2)c2c1CCCCC2Cc1cccc(Cl)c1)c1ccccc1` (stereo partly drawn) [Cpd 175, 8-(3-chloro-benzyl)-1-(4-trifluoromethyl-pyrimidin-2-yl)-1,4,5,6,7,8-hexahydro-cycloheptapyrazole-3-carboxylic acid [(1R)-1-phenyl-ethyl]-amide], the inhibition at 0.2 µM on CB2 receptor (setting [1]) turned out to be 36%; on CB1 receptor it was 30%.

On to `O=C(N[C@@H](CO)c1ccccc1)c1nn(-c2nccc(C(F)(F)F)n2)c2c1CCCCC2Cc1cccc(Cl)c1` (stereo partly drawn) [Cpd 176, 8-(3-chloro-benzyl)-1-(4-trifluoromethyl-pyrimidin-2-yl)-1,4,5,6,7,8-hexahydro-cycloheptapyrazole-3-carboxylic acid [(1R)-2-hydroxy-1-phenyl-ethyl]-amide], for which the inhibition at 0.2 µM worked out at 43% at CB2 receptor (setting [1]) and 4% at CB1 receptor.

As to `C[C@@H](NC(=O)c1nn(-c2ccnc3cc(Cl)ccc23)c2c1CCCCC2Cc1cccc(Cl)c1)c1ccccc1` (stereo partly drawn) [Cpd 177, 8-(3-chloro-benzyl)-1-(7-chloro-quinolin-4-yl)-1,4,5,6,7,8-hexahydro-cycloheptapyrazole-3-carboxylic acid [(1R)-1-phenyl-ethyl]-amide], the inhibition at 0.2 µM at CB2 receptor (setting [1]) is 27%; on CB1 receptor it was 4%.

`O=C(N[C@@H](CCl)c1ccccc1)c1nn(-c2nccc(C(F)(F)F)n2)c2c1CCCCC2Cc1cccc(Cl)c1` (stereo partly drawn) [Cpd 178, 8-(3-chloro-benzyl)-1-(4-trifluoromethyl-pyrimidin-2-yl)-1,4,5,6,7,8-hexahydro-cycloheptapyrazole-3-carboxylic acid [(1R)-2-chloro-1-phenyl-ethyl]-amide]: the inhibition at 0.2 µM at CB2 receptor (setting [1]) and on CB1 receptor was 29% each time.

Regarding `O=C(N[C@H](CCl)c1ccccc1)c1nn(-c2nccc(C(F)(F)F)n2)c2c1CCCCC2Cc1cccc(Cl)c1` (stereo partly drawn) [Cpd 179, 8-(3-chloro-benzyl)-1-(4-trifluoromethyl-pyrimidin-2-yl)-1,4,5,6,7,8-hexahydro-cycloheptapyrazole-3-carboxylic acid [(1S)-2-chloro-1-phenyl-ethyl]-amide], the inhibition at 0.2 µM on CB2 receptor (setting [1]) is 29%; on CB1 receptor, 0%.

Consider `C[C@@H](NC(=O)c1nn(-c2ccncc2)c2c1CCCC/C2=C\c1ccc(Cl)cc1)C1CCCCC1` [Cpd 180, (8E)-8-(4-chloro-benzylidene)-1-pyridin-4-yl-1,4,5,6,7,8-hexahydro-cycloheptapyrazole-3-carboxylic acid [(1R)-1-cyclohexyl-ethyl]-amide], for which the inhibition at 0.2 µM on CB2 receptor (setting [1]) stood at 86%; at CB1 receptor, 40%.

As to `C[C@H](NC(=O)c1nn(-c2ccncc2)c2c1CCCC/C2=C\c1ccc(Cl)cc1)C1CCCCC1` [Cpd 181, (8E)-8-(4-chloro-benzylidene)-1-pyridin-4-yl-1,4,5,6,7,8-hexahydro-cycloheptapyrazole-3-carboxylic acid [(1S)-1-cyclohexyl-ethyl]-amide], the inhibition at 0.2 µM on CB2 receptor (setting [1]) is 57%; on CB1 receptor, 32%.

Take `O=C(NN1CCCCC1)c1nn(-c2ccncc2)c2c1CCCC/C2=C\c1ccc(Cl)cc1` [Cpd 182, (8E)-8-(4-chloro-benzylidene)-1-pyridin-4-yl-1,4,5,6,7,8-hexahydro-cycloheptapyrazole-3-carboxylic acid piperidin-1-ylamide]: the inhibition at 0.2 µM at CB2 receptor (setting [1]) amounted to 31%; on CB1 receptor it was 21%.
